Experiment: Human HepG2 cell viability assay in 384 well format
Type: toxicity, cell-based
Design: dose 125 nL, time 70.5 hour; concentration not given beside the values
Conditions: HepG2 cells, read-out: Inhibition

COc1cccc(CNc2ccc(F)c(Cl)c2)c1O
cytotoxicity at 70.5 h: -4.8%

COCCNC(=O)c1cc(OC)c2ccoc2c1
cytotoxicity at 70.5 h: -1.33%

COCCCNC(=O)c1cc(OC)c2ccoc2c1
cytotoxicity at 70.5 h: 22.5%

CCN(CC)CCNC(=O)c1cc(OC)c2ccoc2c1
cytotoxicity at 70.5 h: -5.95%

CSCc1cccc(S(=O)(=O)Nc2cc(C)on2)c1
cytotoxicity at 70.5 h: 3.33%

CCN(CC)c1nc(C)cc(C(=O)Nc2ccc(Br)cc2)n1
cytotoxicity at 70.5 h: 3.54%

Cc1nc2[nH]cnc(NCCN3CCCC3)c-2n1
cytotoxicity at 70.5 h: -9.67%

CCn1nccc1CNc1[nH]cnc2nc(C)nc1-2
cytotoxicity at 70.5 h: 27.9%

Cc1nc2c(N3CCN(Cc4ccccc4)CC3)nc(N)nc2n1C
cytotoxicity at 70.5 h: 0.226%

CCn1ccc(NC(=O)C2CCC(=O)N2Cc2ccc(C)o2)n1 (configuration not stated)
cytotoxicity at 70.5 h: -4.94%

Cc1cc(C(=O)NCc2c(C)nn(C)c2C)nc(N2CCCC2)n1
cytotoxicity at 70.5 h: -3.65%

Cc1cc(C(=O)NCc2cccs2)nc(N2CCCC2)n1
cytotoxicity at 70.5 h: -6.4%

CCOCc1cccc(S(=O)(=O)Nc2ncc(C)s2)c1
cytotoxicity at 70.5 h: 3.25%

Cc1nc(N2CCOCC2)ncc1-c1cc(O)nc(N2CCCCC2)n1
cytotoxicity at 70.5 h: 14.1%

Cc1cc(C)n(C(=O)c2cn(C)nc2S(=O)(=O)N2CCSCC2)n1
cytotoxicity at 70.5 h: -7.57%

CCn1cc(C(=O)n2nc(C)cc2C)c(S(=O)(=O)N2CCCCC2)n1
cytotoxicity at 70.5 h: -3.56%

CSc1ccc(-c2noc(CN(Cc3ccccc3)C(C)C)n2)cc1
cytotoxicity at 70.5 h: -6.81%

CCCN(CCC)C(=O)Cn1c(SC)nc2ccsc2c1=O
cytotoxicity at 70.5 h: -0.333%

CSc1nc2ccsc2c(=O)n1CC(=O)N(C)C1CCCCC1
cytotoxicity at 70.5 h: -5.09%

Cc1ccn(-c2ccnc(N3CCC(N4CCCCC4)CC3)n2)n1
cytotoxicity at 70.5 h: -13.2%

Cc1ccn(-c2ccnc(N3CCSCC3)n2)n1
cytotoxicity at 70.5 h: -0.283%

CCOC(=O)C1CCCN(c2nccc(-n3nc(C)cc3C)n2)C1 (configuration not stated)
cytotoxicity at 70.5 h: -9.69%

Cc1ccn(-c2ccnc(N3CCN(c4ncccn4)CC3)n2)n1
cytotoxicity at 70.5 h: -9.69%

CCc1cc(=O)n(CC(=O)N2CCCC2)c(-c2ccc(F)cc2)n1
cytotoxicity at 70.5 h: -5.4%

Cc1cc2nc(SCC(=O)NC(C)C)n(Cc3ccco3)c(O)c-2n1
cytotoxicity at 70.5 h: -14.4%

CN1CCN(C(=O)c2[nH]nnc2Nc2ccccc2F)CC1
cytotoxicity at 70.5 h: -14.3%

CC(C)CN1CCN(C(=O)c2[nH]nnc2Nc2ccccc2F)CC1
cytotoxicity at 70.5 h: 8.05%

CCc1cc(=O)n(CC(=O)N2CCC(C)CC2)c(-c2ccccc2)n1
cytotoxicity at 70.5 h: -10.3%

Cc1nc(-c2cccc(Cl)c2)n(CC(=O)NCC2CCCO2)c(=O)c1C (configuration not stated)
cytotoxicity at 70.5 h: 3.53%

CCn1cc(NC(=O)c2cc(C)nc(N3CCOCC3)n2)cn1
cytotoxicity at 70.5 h: -10.6%

CC(=O)NCCCn1ncc2c(C)cccc21
cytotoxicity at 70.5 h: -10.8%

CCS(=O)(=O)NCCCn1ncc2c(C)cccc21
cytotoxicity at 70.5 h: -1.77%

c1cc(-c2nn3c(CN4CCOCC4)nnc3s2)ccn1
cytotoxicity at 70.5 h: -8.04%

COc1ccc(C)cc1S(=O)(=O)NCCC(O)c1ccccc1 (configuration not stated)
cytotoxicity at 70.5 h: -10.5%

Cc1cc2n(n1)[C@@H](C(F)(F)F)C[C@@H](C1CCN(C(=O)C3CC3)CC1)N2
cytotoxicity at 70.5 h: -2.95%

CCc1cc(C(=O)N2CCC(c3cc4ncccc4cn3)CC2)no1
cytotoxicity at 70.5 h: 18.3%

CCCN1C[C@H](NC(=O)c2cccs2)[C@@H](c2ccc(OC)cc2)C1
cytotoxicity at 70.5 h: 0.254%

Cc1cc(C)n(CCCC(=O)N2CCc3ncc(Cl)cc3C2)n1
cytotoxicity at 70.5 h: 30.1%

Cc1nc(C)n(CC(=O)N2CCc3ncc(Cl)cc3C2)n1
cytotoxicity at 70.5 h: 7.22%

Cc1cnc(-c2nc(C3CCN(C(=O)Cc4ccsc4)CC3)no2)cn1
cytotoxicity at 70.5 h: 2.59%

CN1CCN(C(=O)CCn2c(C(F)(F)F)cc3cccnc32)CC1
cytotoxicity at 70.5 h: 34.4%

Cn1nccc1C(=O)N1Cc2ccccc2OC2(CCOCC2)C1
cytotoxicity at 70.5 h: 1.33%

Cc1ccc(C(=O)N2Cc3ccccc3OC3(CCOCC3)C2)cn1
cytotoxicity at 70.5 h: 30.6%

COc1ccc(-c2cc3nc([C@H](C)NC(=O)C4CC4)nn3cn2)cc1
cytotoxicity at 70.5 h: -0.493%

C[C@H](NC(=O)C1CCCC1)c1nc2cc(-c3ccc(F)cc3)ncn2n1
cytotoxicity at 70.5 h: 4.97%

COc1ccccc1C1=NOC(CC2(C(=O)NCCO)CCOCC2)C1 (configuration not stated)
cytotoxicity at 70.5 h: 0.737%

c1ccc(-c2cc(CNCCN3CCOCC3)c3nnnn3c2)cc1
cytotoxicity at 70.5 h: -0.928%

COCCOCC(=O)N1C[C@@H]2CC[C@H](Oc3ccccc3Cl)[C@@H]2C1
cytotoxicity at 70.5 h: 0.895%

O=C(O)c1ccccc1CN1CCOC(CCc2ccncn2)C1 (configuration not stated)
cytotoxicity at 70.5 h: -4.46%

CS(=O)(=O)NC[C@]1(O)CCN(C(=O)Cc2cccs2)C[C@H]1O
cytotoxicity at 70.5 h: 12.2%

COCCCNC(=O)c1ccccc1-n1cc(CN(C)C)cn1
cytotoxicity at 70.5 h: -7.43%

c1ccc(CO[C@H]2C[C@@H]3CN(Cc4cccnc4)C[C@@H]3C2)cc1
cytotoxicity at 70.5 h: -3.52%

Cc1cnc(C(=O)N(C)[C@@H]2CCC[C@@H](Oc3ccccc3)[C@@H]2O)cn1
cytotoxicity at 70.5 h: 16.9%

Cc1nc2ccccn2c1CC(=O)N[C@@H]1CC[C@@H](N2CCOCC2)[C@@H]1O
cytotoxicity at 70.5 h: -1.29%

Cc1n[nH]c(C)c1-c1cnc(CC2CCN(C(C)C)CC2)cn1
cytotoxicity at 70.5 h: -2.78%

CN1CCCC[C@@H]2[C@H]1[C@@H](c1ccccc1)CCN2S(=O)(=O)N1CCCC1
cytotoxicity at 70.5 h: -1.85%

COCCN1CCCC(c2nc(C)n3c(C)c(C)sc23)C1 (configuration not stated)
cytotoxicity at 70.5 h: -5.38%

Reference: ChEMBL document CHEMBL3507680, “University of Dundee, Gates Library screen for HepG2 cell viability”
